According to patent US12162848B2, “Inhibitors of protein tyrosine phosphatase, compositions, and methods of use” (BRISTOL-MYERS SQUIBB COMPANY, priority 2022, dated 2024):

Experiments:
[1] = system: phosphorylated STAT1 protein levels in B16-F10 cells; assay: Phospho-STAT1 (Tyr701) HTRF assay in IFN-gamma treated B16-F10 cells; type: cell-based; settings: mouse IFN-gamma 100 ng/mL, 1 hour, read-out: pSTAT1 HTRF B16 EC50
Method: B16-F10 cells (ATCC, Manassas, VA, #CRL-6475) were cultured in DMEM growth medium (ThermoFisher Scientific, Waltham, MA, #11995-040) supplemented with 10% heat inactivated FBS (ThermoFisher Scientific, #16140-071) and 1% pen/strep (ThermoFisher Scientific, #15140-122). The cells were seeded into a white opaque 384-well tissue culture treated microplate (PerkinElmer, Waltham, MA, #6007688) at a density of 10,000 cells/well in 20 uL total volume and incubated overnight at 37 C and 5% CO2. 30 nL of compounds dissolved in DMSO were then transferred from a source plate into target wells with the Echo650 acoustic liquid handler (Beckman Coulter, Indianapolis, IN). Negative control wells received 30 nL of DMSO only (0.15% final concentration). Plates were returned to the incubator for 1 hour and then cells treated with either 5 uL of growth medium or 5 uL of growth medium containing 500 ng/mL of recombinant mouse IFN-gamma protein (R&D Systems, Minneapolis, MN, #485-MI/CF, 100 ng/mL final concentration) using the Assist automated pipetting platform (INTEGRA Biosciences, Hudson, NH). Plates were incubated at 37 C for 1 hour and assayed for phosphorylated STAT1 protein levels with the phospho-STAT1 (Tyr701) HTRF kit (Cisbio, Bedford, MA, #63ADK026PEH) according to manufacturer's instructions.

B16-F10 cells = assay: Cell proliferation assay (CellTiter-Glo) in IFN-gamma treated B16-F10 cells; type: cell-based; settings: 120 h, mouse IFN-gamma 10 ng/mL, read-out: PTPN2 Prolif 5d B16F10 EC50
Method: B16-F10 cells (ATCC, Manassas, VA, #CRL-6475) were cultured in DMEM growth medium (ThermoFisher Scientific, Waltham, MA, #11995-040) supplemented with 10% heat inactivated FBS (ThermoFisher Scientific, #16140-071) and 1% pen/strep (ThermoFisher Scientific, #15140-122). The cells were seeded into two white opaque 384-well tissue culture treated microplates (PerkinElmer, Waltham, MA, #6007688) at a density of 100 cells/well in 20 uL total volume and incubated overnight at 37 C and 5% CO2. 30 nL of compounds dissolved in DMSO were then transferred from a source plate into target wells with the Echo650 acoustic liquid handler (Beckman Coulter, Indianapolis, IN). Negative control wells received 30 nL of DMSO only (0.15% final concentration). Plates were returned to the incubator for 1 hour and then cells treated with either 5 uL of growth medium or 5 uL of growth medium containing 50 ng/mL of recombinant mouse IFN-gamma protein (R&D Systems, Minneapolis, MN, #485-MI/CF, 10 ng/mL final concentration) using the Assist automated pipetting platform (INTEGRA Biosciences, Hudson, NH). Plates were incubated at 37 C for 4 days and cell proliferation assayed with the CellTiter-Glo reagent (Promega, Madison, WI, #G7573, 25 uL per well). […] Off-target compound mediated cytotoxicity was identified by checking for growth inhibition in the absence of IFNg.

PTPN2 enzyme = target: T1, PTPN2 enzyme (Homo sapiens, UniProt P17706); assay: PhosphoSens PTPN2 biochemical assay; settings: substrate AQT0264 20 μM, room temperature; read-out: PTPN2 BCHEM IC50
T1 sequence (P17706 1-415): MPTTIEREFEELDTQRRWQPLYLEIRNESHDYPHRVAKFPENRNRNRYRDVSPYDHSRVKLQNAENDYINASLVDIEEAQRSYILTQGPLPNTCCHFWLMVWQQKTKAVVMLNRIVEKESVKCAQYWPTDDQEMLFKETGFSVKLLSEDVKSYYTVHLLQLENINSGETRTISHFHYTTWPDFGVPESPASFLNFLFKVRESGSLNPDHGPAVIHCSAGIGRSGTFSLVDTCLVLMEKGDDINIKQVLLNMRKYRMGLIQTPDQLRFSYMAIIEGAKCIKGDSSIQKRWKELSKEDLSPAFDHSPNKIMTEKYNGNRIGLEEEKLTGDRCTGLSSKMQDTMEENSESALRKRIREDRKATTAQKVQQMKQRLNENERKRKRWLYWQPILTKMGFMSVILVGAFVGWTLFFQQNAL
Method: A PhosphoSens® kinase assay was performed as described by the vendor (AssayQuant Technologies, Marlborough, MA). Briefly, 1000×solutions of compounds were prepared in DMSO via serial dilution of the 10 mM DMSO stocks using 3-fold intervals in a 384-well reagent plate. 50 nL of the compound dilution series was then added to the corresponding wells of a 384-well assay plate. […] of 1.25×substrate (AQT0264) in 1× assay buffer (50 mM HEPES pH 7.5, 500 μM EGTA, […] MgCl2, 0.01% Brij-35, 1% Glycerol, 1 mM DTT, and 0.2 mg/mL BSA) was transferred to each well of the assay plate to achieve a final substrate concentration of 20 μM. Finally, […] of 5×PTPN2 enzyme stock was added to each well of the assay plate for a final enzyme concentration of […]. Reaction progress curves were collected by sampling fluorescence intensity at the excitation wavelength 360 nm (λex360) and emission wavelength 480 nm (λem480) every 71 seconds for one hour using a Synergy H4 plate reader (BioTek Instruments/Agilent Technologies, Winooski, VT) at room temperature.

Row | EC50 [1] | EC50 (B16-F10 cells) | IC50 (PTPN2 enzyme) | Structure (SMILES)
1 | ≥ 15 µM | ≥ 15 µM | – | CC1(C)CCC(NCc2ccc(O)c(N3CC(=O)NS3(=O)=O)c2F)CC1 [EXAMPLE 97, 5-(3-(((4,4-dimethylcyclohexyl)amino)methyl)-2-fluoro-6-hydroxyphenyl)-1,2,5-thiadiazolidin-3-one 1,1-dioxide]
2 | 10.9 µM | – | 0.381 µM | CCCCC1CCN(Cc2cc(O)c(N3CC(=O)NS3(=O)=O)c(F)c2)CC1 [EXAMPLE 57, 5-[4-[(4-butyl-1-piperidyl)methyl]-2-fluoro-6-hydroxy-phenyl]-1,1-dioxo-1,2,5-thiadiazolidin-3-one]
3 | ≥ 15 µM | ≥ 15 µM | – | N#Cc1ccc(Cl)c(NCc2cc(O)c(N3CC(=O)NS3(=O)=O)c(F)c2)c1 [EXAMPLE 81, 4-chloro-3-[[3-fluoro-5-hydroxy-4-(1,1,4-trioxo-1,2,5-thiadiazolidin-2-yl)phenyl]methylamino]benzonitrile]
4 | ≥ 15 µM | – | – | CN(C)C1CCN(Cc2ccc(O)c(N3CC(=O)NS3(=O)=O)c2F)CC1 [EXAMPLE 102, 5-(3-((4-(dimethylamino)piperidin-1-yl)methyl)-2-fluoro-6-hydroxyphenyl)-1,2,5-thiadiazolidin-3-one 1,1-dioxide]
5 | ≥ 15 µM | – | 0.03 µM | O=C1CN(c2c(O)cc(CN[C@H]3CCCN(S(=O)(=O)c4cccc(F)c4)C3)cc2F)S(=O)(=O)N1 [EXAMPLE 70, 5-[2-fluoro-4-[[[(3S)-1-(3-fluorophenyl)sulfonyl-3-piperidyl]amino]methyl]-6-hydroxy-phenyl]-1,1-dioxo-1,2,5-thiadiazolidin-3-one]
6 | 0.197 µM | – | 0.01 µM | O=C1CN(c2c(O)cc(CNc3cc(C4CC4)ccn3)cc2F)S(=O)(=O)N1 [EXAMPLE 82, 5-[4-[[(4-cyclopropyl-2-pyridyl)amino]methyl]-2-fluoro-6-hydroxy-phenyl]-1,1-dioxo-1,2,5-thiadiazolidin-3-one]
7 | ≥ 15 µM | ≥ 15 µM | – | O=C1CN(c2c(O)cc(C(=O)N[C@@H]3CCCNC3)cc2F)S(=O)(=O)N1 [EXAMPLE 94, (R)-4-(1,1-dioxido-4-oxo-1,2,5-thiadiazolidin-2-yl)-3-fluoro-5-hydroxy-N-(piperidin-3-yl)benzamide]
8 | ≥ 15 µM | – | – | O=C1CN(c2c(O)ccc(CN3CCC(F)CC3)c2F)S(=O)(=O)N1 [EXAMPLE 98, 5-(2-fluoro-3-((4-fluoropiperidin-1-yl)methyl)-6-hydroxyphenyl)-1,2,5-thiadiazolidin-3-one 1,1-dioxide]
9 | ≥ 15 µM | – | – | CC(C)CCN1CCN(Cc2ccc(O)c(N3CC(=O)NS3(=O)=O)c2F)CC1 [EXAMPLE 104, 5-[2-fluoro-6-hydroxy-3-[(4-isopentylpiperazin-1-yl)methyl]phenyl]-1,1-dioxo-1,2,5-thiadiazolidin-3-one]
10 | 13.1 µM | – | 0.331 µM | CC(C)OC1CCN(Cc2cc(O)c(N3CC(=O)NS3(=O)=O)c(F)c2)CC1 [EXAMPLE 54, 5-[2-fluoro-6-hydroxy-4-[(4-isopropoxy-1-piperidyl)methyl]phenyl]-1,1-dioxo-1,2,5-thiadiazolidin-3-one]
11 | 6.68 µM | – | 0.032 µM | CC(=O)N1CCC[C@@H](NCc2cc(O)c(N3CC(=O)NS3(=O)=O)c(F)c2)C1 [EXAMPLE 68, 5-[4-[[[(3R)-1-acetyl-3-piperidyl]amino]methyl]-2-fluoro-6-hydroxy-phenyl]-1,1-dioxo-1,2,5-thiadiazolidin-3-one]
12 | 1.87 µM | – | 0.07 µM | N#Cc1cc(CNCc2cc(O)c(N3CC(=O)NS3(=O)=O)c(F)c2)ccc1F [EXAMPLE 45, 2-fluoro-5-[[[3-fluoro-5-hydroxy-4-(1,1,4-trioxo-1,2,5-thiadiazolidin-2-yl)phenyl]methylamino]methyl]benzonitrile]
13 | – | – | 1.2 µM | O=C1CN(c2c(O)cc(NC3CCNCC3)cc2F)S(=O)(=O)N1 [EXAMPLE 88, 5-(2-fluoro-6-hydroxy-4-(piperidin-4-ylamino)phenyl)-1,2,5-thiadiazolidin-3-one 1,1-dioxide]
14 | 11.3 µM | – | 0.401 µM | COCCC1CCN(Cc2cc(O)c(N3CC(=O)NS3(=O)=O)c(F)c2)CC1 [EXAMPLE 55, 5-[2-fluoro-6-hydroxy-4-[[4-(2-methoxyethyl)-1-piperidyl]methyl]phenyl]-1,1-dioxo-1,2,5-thiadiazolidin-3-one]
15 | ≥ 15 µM | – | 0.806 µM | CCCN(Cc1cc(O)c(N2CC(=O)NS2(=O)=O)c(F)c1)CC1CCC1 [EXAMPLE 78, 5-[4-[[cyclobutylmethyl(propyl)amino]methyl]-2-fluoro-6-hydroxy-phenyl]-1,1-dioxo-1,2,5-thiadiazolidin-3-one]
16 | – | – | 0.083 µM | CC(=O)N1CCN(Cc2cc(O)c(N3CC(=O)NS3(=O)=O)c(F)c2)CC1 [EXAMPLE 38, 5-(4-((4-acetylpiperazin-1-yl)methyl)-2-fluoro-6-hydroxyphenyl)-1,2,5-thiadiazolidin-3-one 1,1-dioxide]
17 | ≥ 15 µM | – | 0.088 µM | O=C1CN(c2c(O)cc(CN[C@@H]3CCCN(S(=O)(=O)c4cccc(F)c4)C3)cc2F)S(=O)(=O)N1 [EXAMPLE 69, 5-[2-fluoro-4-[[[(3R)-1-(3-fluorophenyl)sulfonyl-3-piperidyl]amino]methyl]-6-hydroxy-phenyl]-1,1-dioxo-1,2,5-thiadiazolidin-3-one]
18 | – | – | 2.75 µM | CC(C)CCN1CCC(c2cc(O)c(N3CC(=O)NS3(=O)=O)c(F)c2)CC1 [EXAMPLE 6, 5-[2-fluoro-6-hydroxy-4-(1-isopentyl-4-piperidyl)phenyl]-1,1-dioxo-1,2,5-thiadiazolidin-3-one]
19 | ≥ 15 µM | – | – | CN(Cc1cc(O)c(N2CC(=O)NS2(=O)=O)c(F)c1)C1CCC(C)(C)CC1 [EXAMPLE 77, 5-[4-[[(4,4-dimethylcyclohexyl)-methyl-amino]methyl]-2-fluoro-6-hydroxy-phenyl]-1,1-dioxo-1,2,5-thiadiazolidin-3-one]
20 | – | – | 1.3 µM | O=C1CN(c2c(O)cc(C3CCNCC3)cc2F)S(=O)(=O)N1 [EXAMPLE 2, 5-[2-fluoro-6-hydroxy-4-(4-piperidyl)phenyl]-1,1-dioxo-1,2,5-thiadiazolidin-3-one]
21 | – | – | 4.73 µM | CN1CCCC(c2cc(O)c(N3CC(=O)NS3(=O)=O)c(F)c2)C1 (centres unmarked) [EXAMPLE 3, 5-(2-fluoro-6-hydroxy-4-(1-methylpiperidin-3-yl)phenyl)-1,2,5-thiadiazolidin-3-one 1,1-dioxide]
22 | 9.74 µM | – | 0.266 µM | COc1ncccc1-c1cc(O)c(N2CC(=O)NS2(=O)=O)c(F)c1 [EXAMPLE 25, 5-[2-fluoro-6-hydroxy-4-(2-methoxy-3-pyridyl)phenyl]-1,1-dioxo-1,2,5-thiadiazolidin-3-one]
